Assay results reported in patent publication US6653280B2, “Antifungal polypeptide AlyAFP from Alyssum and methods for controlling plant pathogenic fungi” (Monsanto Technology LLC, priority 1996, dated 2003).
Like-named read-outs stand apart in the source and are kept apart here.

Key:
[1] = ELISA of antifungal polypeptide expression in leaves of transgenic potato plants; set-up: species or system potato (Solanum tuberosum var. Russet Burbank); settings: 3 transgenic potato lines
Experimental: Leaf samples (20 to 100 mg) were taken from transgenic plants grown to 1 to 2 inches in height. The leaf samples were ground in PBST buffer (15 μl/mg tissue) containing 1 mM KH2PO4, 10 mM Na2HPO4, 137 mM NaCl, 2.7 mM KCl, pH 7.4, and 0.05% Tween-20, and allowed to sit at 4° C. overnight. After centrifugation, 100 μl of the supernatant were used in an ELISA assay. Polyclonal antibodies against Rs-AFP1 polypeptide (SEQ ID NO:18) were prepared by Pocono Rabbit Farm (Pocono, Pa.). Wells of a Nunc Maxi-sorp 96 well plate (Nunc #4-39454) were coated with antibodies against Rs-AFP1 polypeptide by adding 100 μl of antibodies (1 mg IgG/ml) diluted 1:200 in coating buffer containing 1.59 g Na2CO3 and 2.93 g NaHCO3 per liter distilled water, pH 9.6, and incubating at 4° C. overnight. The coating solution was then removed from the wells, which were then washed three times with PBST. One hundred μl of leaf supernatant or appropriately diluted polypeptide standards in PBST supplemented with 0.2% (w/v) BSA, fraction V (Sigma, St. Louis) were added to the wells. The concentration of each polypeptide in extracts from transgenic plants was determined from standard curves constructed using varying amounts of the respective purified polypeptide. […] The optical density at 405 nm was determined using a Thermo-max microplate reader (Molecular Devices, Menlo Park, Calif.). […]

Fusarium culmorum [2] = settings: F. culmorum
Experimental: (§1) The antifungal activity of AlyAFP can be expressed as the concentration thereof in μg/ml required to cause 50% inhibition of fungal hyphal growth (IC50). Percent fungal hyphal growth inhibition is defined as 100×the ratio of the average hyphae length in the test sample culture divided by the average hyphae length in the control culture in which buffer is added in place of the polypeptide sample.
(§2) The antifungal activity of AlyAFP was determined by measuring the inhibition of fungal hyphal length of a number of different fungi in the presence of this polypeptide under an inverted microscope. Fungal spores (2×10^4 spores/ml) were allowed to germinate for 5 to 15 hours, depending on the fungus used in the test, in 50 μl of double strength testing medium. […] For experiments on the antagonistic effect of cations, CaCl2 and KCl were added to final concentrations of 1 mM and 50 mM, respectively. This salt-supplemented medium is refered to as “high salt medium,” and the original medium is refered to as “low salt medium.” After spore germination, 50 μl of a filter-sterilized solution of polypeptide in distilled water were added to the testing well containing the germinated spores, and the mixture was incubated for 15 to 24 hours at 24° C. […] Polypeptide concentrations were determined using the BCA protein assay kit obtained from Pierce (Rockford, Ill.).

Verticillium dahliae [3] = assay: Antifungal activity: inhibition of fungal hyphal growth (microscopy); assay type: cell-based; settings: V. dahliae
Experimental: as §1, §2

Verticillium dahliae [4] = assay: Verticillium wilt disease test on transgenic potato plants expressing the polypeptide; assay type: in vivo, potato (Solanum tuberosum var. Russet Burbank); settings: for Disease Severity (%) (44 Days Post Inoc.): average of 3 replicates; for Verticillium wilt resistance conferred to potato plants: expression levels as high as 25 μg/g fresh leaf tissue; for Disease Severity (%) (58 Days Post Inoc.): average of three replicates; for difference in disease progress between expressing lines and control lines: rated at 49, 58, and 64 days post inoculation
Experimental: Conidia and mycelia of a 2-3 week old culture of virulent Verticillium dahliae were used to inoculate a PDA (potatoes, 200 g/l; Bacto dextrose, 20 g/l; and Bacto agar, 15 g/l ) Petri plate. This culture was allowed to grow at 22° C. for 4-5 days. Conidia were then harvested by washing the culture plate with sterile distilled water and filtering the liquid through two layers of cheesecloth. The conidial spore concentration was determined using a hemacytometer, and adjusted to 1×10^6 conidia/ml with sterile distilled water.
Transgenic and non-transgenic potato plants were grown from stem cuttings under sterile conditions as described above in plastic cups containing 50 mls of PM-agar medium. When plants were about 1-2 inches tall, they were removed from the medium and their roots were dipped in the spore suspension (Joaquim et al. (1991) Phytopathology 81:552-558). The inoculated plants were then transplanted into 6-inch pots containing Metro-Mix 350. After transplanting, each plant received an additional 5mls of the spore suspension on the soil surface around the base of the stem. The pots were placed in a growth chamber under the following conditions: temperature at 20° C., light intensity at 320 μEinstein/sec/cm^2, 12 hr day/12 hr night light cycle, subirrigation with water 2 times/day, 20 minutes soaking each time. Four weeks after inoculation, the plants were scored for disease severity on a scale of 0-100% (Horsfall et al. (1945) Phytopathology 35:655). To develop a disease progress curve over time, plants were rated once a week for at least 8 weeks.
Table 3 summarizes the protein expression level in each of the lines, and the disease severity rating of each individual line in the test determined at 44 days post inoculation. The disease severity rating was the average of 3 replicates. For convenience, the same disease data are also presented as a bar graph in FIG. 11. The order of appearance of each potato line in Table 3 (from top to bottom) and in FIG. 11 (from left to right) is the same.
In this test, disease symptoms appeared in the experimental and control plants at approximately 49 days post inoculation. Disease progress was rated at 49, 58, and 64 days post inoculation. […] The disease severity rating was the average of three replicates. Table 4 summarizes the protein expression level in each of the lines, and the disease severity rating of each individual line determined at 58 days post inoculation. For convenience, the same disease data are also presented as a bar graph in FIG. 12. The order of appearance of each potato line in Table 4 (from top to bottom) and in FIG. 12 (from left to right) is the same.

Verticillium dahliae [5] = settings: V. dahliae, comparison peptides disclosed in WO 93/05153, cited from earlier work
Fusarium culmorum [6] = settings: F. culmorum, comparison peptides disclosed in WO 93/05153, cited from earlier work
[7] = high salt medium (1 mM CaCl2, 50 mM KCl)
[8] = 58 days post inoc., average of the 5 expressing lines marked +, vector control 60.0

## AlyAFP: antifungal polypeptide of 50 amino acids obtainable from flowers of Alyssum, SEQ ID NO:2 (RLCERPSGTWSGVCGNNNACRNQCRNLERAEHGSCNYVFPAHKCICYFPC)
[1]
  expression level, medium expressers: 2.6 μg AlyAFP/g fresh leaf tissue
Fusarium culmorum [2]; [7]
  IC50: <10 µg/mL
Fusarium culmorum [2]; low salt medium
  IC50: <2 µg/mL
Verticillium dahliae [3]; [7]
  IC50: <5 µg/mL
Verticillium dahliae [3]; low salt medium
  IC50: <1 µg/mL
Verticillium dahliae [4]; 44 days post inoc., average of the 8 high and medium expressing lines marked +, vector control 39.2
  Average Dis. Sev.: 14.9%
Verticillium dahliae [4]; average of 8 high and medium expressing lines vs average of 3 vector control lines, 44 days
  disease severity less than that of the vector control: 62%
Verticillium dahliae [4]; best high expressing lines #17575 and #17587, 44 days
  disease severity less than that of the vector control: 82%
Verticillium dahliae [4]; low expressing lines (0.9 to 1.1 μg/g fresh leaf tissue)
  disease resistance as compared to the vector controls: did not exhibit any significant level of disease resistance
Verticillium dahliae [4]; potato line 17575, 14.9 μg AFP/g tissue
  Disease Severity (%) (44 Days Post Inoc.): 7.5%
Verticillium dahliae [4]; potato line 17578, 12.7 μg AFP/g tissue
  Disease Severity (%) (44 Days Post Inoc.): 15%
Verticillium dahliae [4]; potato line 17580, 0.9 μg AFP/g tissue
  Disease Severity (%) (44 Days Post Inoc.): 33.3%
Verticillium dahliae [4]; potato line 17581, 9.2 μg AFP/g tissue
  Disease Severity (%) (44 Days Post Inoc.): 24.3%
Verticillium dahliae [4]; potato line 17587, 9.6 μg AFP/g tissue
  Disease Severity (%) (44 Days Post Inoc.): 6.3%
Verticillium dahliae [4]; potato line 17589, 1.1 μg AFP/g tissue
  Disease Severity (%) (44 Days Post Inoc.): 43.8%
Verticillium dahliae [4]; potato line 17592, 2.6 μg AFP/g tissue
  Disease Severity (%) (44 Days Post Inoc.): 11.8%
Verticillium dahliae [4]; potato line 17593, 2.6 μg AFP/g tissue
  Disease Severity (%) (44 Days Post Inoc.): 17.3%
Verticillium dahliae [4]; potato line 17595, 5.2 μg AFP/g tissue
  Disease Severity (%) (44 Days Post Inoc.): 21%
Verticillium dahliae [4]; potato line 17618, 2.6 μg AFP/g tissue
  Disease Severity (%) (44 Days Post Inoc.): 16.3%
Verticillium dahliae [4]; transgenic potato plants
  expression level at which potato plants exhibit resistance to Verticillium wilt: ≥ 2.6 μg/g fresh leaf tissue

## Rs-AFP2: small cysteine-rich antifungal protein isolated from radish seed (WO 93/05153), SEQ ID NO:19 (QKLCQRPSGTWSGVCGNNNACKNQCIRLEKARHGSCNYVFPAHKCICYFPC)
Verticillium dahliae [5]; high salt
  IC50: 50 µg/mL
Verticillium dahliae [5]; low salt
  IC50: 1.5 µg/mL
Verticillium dahliae [4]; [8]
  Average Dis. Sev.: 64.0%
Verticillium dahliae [4]
  Verticillium wilt resistance conferred to potato plants: did not provide any significant level of Verticillium wilt resistance
  difference in disease progress between expressing lines and control lines: No differences
Verticillium dahliae [4]; potato line 13500, 10.8 μg AFP/g tissue
  Disease Severity (%) (58 Days Post Inoc.): 82.5%
Verticillium dahliae [4]; potato line 13501, 25.2 μg AFP/g tissue
  Disease Severity (%) (58 Days Post Inoc.): 76.3%
Verticillium dahliae [4]; potato line 13503, 25.1 μg AFP/g tissue
  Disease Severity (%) (58 Days Post Inoc.): 53.8%
Verticillium dahliae [4]; potato line 13531, 16.2 μg AFP/g tissue
  Disease Severity (%) (58 Days Post Inoc.): 72.5%
Verticillium dahliae [4]; potato line 13532, 17.5 μg AFP/g tissue
  Disease Severity (%) (58 Days Post Inoc.): 35.0%
Fusarium culmorum [6]; high salt
  IC50: 5 µg/mL
Fusarium culmorum [6]; low salt
  IC50: 2 µg/mL

## Rs-AFP1: small cysteine-rich antifungal protein isolated from radish seed (WO 93/05153), SEQ ID NO:18 (QKLCERPSGTWSGVCGNNNACKNQCINLEKARHGSCNYVFPAHKCICYFPC)
Verticillium dahliae [5]; high salt
  IC50: >100 µg/mL
Verticillium dahliae [5]; low salt
  IC50: 5 µg/mL
Verticillium dahliae [4]; [8]
  Average Dis. Sev.: 59.8%
Verticillium dahliae [4]
  Verticillium wilt resistance conferred to potato plants: did not provide any significant level of Verticillium wilt resistance
  difference in disease progress between expressing lines and control lines: No differences
Verticillium dahliae [4]; potato line 15117, 9.7 μg AFP/g tissue
  Disease Severity (%) (58 Days Post Inoc.): 47.5%
Verticillium dahliae [4]; potato line 15120, 8.0 μg AFP/g tissue
  Disease Severity (%) (58 Days Post Inoc.): 50.0%
Verticillium dahliae [4]; potato line 15124, 26 μg AFP/g tissue
  Disease Severity (%) (58 Days Post Inoc.): 56.3%
Verticillium dahliae [4]; potato line 15143, 18.3 μg AFP/g tissue
  Disease Severity (%) (58 Days Post Inoc.): 78.8%
Verticillium dahliae [4]; potato line 15154, 5.2 μg AFP/g tissue
  Disease Severity (%) (58 Days Post Inoc.): 66.3%
Fusarium culmorum [6]; high salt
  IC50: 70 µg/mL
Fusarium culmorum [6]; low salt
  IC50: 5 µg/mL
